# Laboratory results: ChEMBL document CHEMBL2439971, “Design, synthesis and antiproliferative evaluation of fluorenone analogs with DNA topoisomerase I inhibitory properties” (Bioorg Med Chem, 2013)
# Columns and labels:
# [1] = tested on: HCT-116; assay: Cytotoxicity against human HCT116 cells after 48 hrs by sulforhodamine B assay; assay type: functional; details: HCT-116, 48 h
# [2] = tested on: MDA-MB-435; assay: Cytotoxicity against human MDA-MB-435 cells at 10 uM after 48 hrs by sulforhodamine B assay relative to control; assay type: functional
# [3] = tested on: SNB-19; assay: Cytotoxicity against human SNB19 cells after 48 hrs by sulforhodamine B assay; assay type: functional; details: SNB-19, 48 h
# [4] = tested on: LOX IMVI; assay: Cytotoxicity against human LOXIMVI cells after 48 hrs by sulforhodamine B assay; assay type: functional
# [5] = tested on: Malme-3M; assay: Cytotoxicity against human MALME-3M cells at 10 uM after 48 hrs by sulforhodamine B assay relative to control; assay type: functional
# [6] = tested on: UACC-257; assay: Cytotoxicity against human UACC257 cells after 48 hrs by sulforhodamine B assay; assay type: functional; details: UACC-257, 48 h
# [7] = tested on: M14; assay: Cytotoxicity against human M14 cells at 10 uM after 48 hrs by sulforhodamine B assay relative to control; assay type: functional
# [8] = tested on: LOX IMVI; assay: Cytotoxicity against human LOXIMVI cells at 10 uM after 48 hrs by sulforhodamine B assay relative to control; assay type: functional
# [9] = tested on: T47D; assay: Cytotoxicity against human T47D cells after 48 hrs by sulforhodamine B assay; assay type: functional
# [10] = tested on: CCRF-CEM; assay: Cytotoxicity against human CCRF-CEM cells at 10 uM after 48 hrs by sulforhodamine B assay relative to control; assay type: functional
# [11] = molecular target: DNA topoisomerase 1 (Homo sapiens) (UniProt P11387); assay: Inhibition of recombinant human DNA topoisomerase 1-mediated relaxation of supercoiled pHOT DNA after 45 mins by agarose gel electrophoresis
# Chain of DNA topoisomerase 1 (Homo sapiens) (P11387 whole entry): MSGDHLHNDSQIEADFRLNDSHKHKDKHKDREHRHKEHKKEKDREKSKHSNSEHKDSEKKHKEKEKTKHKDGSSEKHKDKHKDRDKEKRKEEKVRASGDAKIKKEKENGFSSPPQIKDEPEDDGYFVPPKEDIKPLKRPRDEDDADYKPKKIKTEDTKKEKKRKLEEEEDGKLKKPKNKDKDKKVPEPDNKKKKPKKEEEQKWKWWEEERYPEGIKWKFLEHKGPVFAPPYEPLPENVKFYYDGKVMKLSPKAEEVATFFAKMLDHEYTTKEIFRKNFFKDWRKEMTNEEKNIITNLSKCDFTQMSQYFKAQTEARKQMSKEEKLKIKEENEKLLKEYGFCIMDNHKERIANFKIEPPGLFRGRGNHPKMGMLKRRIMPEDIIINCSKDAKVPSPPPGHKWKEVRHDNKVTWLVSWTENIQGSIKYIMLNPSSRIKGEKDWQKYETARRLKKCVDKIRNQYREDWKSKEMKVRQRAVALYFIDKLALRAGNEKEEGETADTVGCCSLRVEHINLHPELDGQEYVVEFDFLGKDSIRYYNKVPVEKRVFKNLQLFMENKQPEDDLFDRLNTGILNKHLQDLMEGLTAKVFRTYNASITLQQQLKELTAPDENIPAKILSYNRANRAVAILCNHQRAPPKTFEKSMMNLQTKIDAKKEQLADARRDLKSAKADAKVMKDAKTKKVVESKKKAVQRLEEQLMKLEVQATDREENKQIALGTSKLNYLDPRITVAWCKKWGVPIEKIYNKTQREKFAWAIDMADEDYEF
# [12] = tested on: SK-MEL-5; assay: Cytotoxicity against human SK-MEL-5 cells after 48 hrs by sulforhodamine B assay; assay type: functional; details: SK-MEL-5, 48 h
# [13] = tested on: SF-268; assay: Cytotoxicity against human SF268 cells at 10 uM after 48 hrs by sulforhodamine B assay relative to control; assay type: functional
# [14] = tested on: SK-MEL-2; assay: Cytotoxicity against human SK-MEL-2 cells at 10 uM after 48 hrs by sulforhodamine B assay relative to control; assay type: functional
# [15] = tested on: PC-3; assay: Cytotoxicity against human PC3 cells at 10 uM after 48 hrs by sulforhodamine B assay relative to control; assay type: functional
# [16] = tested on: M14; assay: Cytotoxicity against human M14 cells after 48 hrs by sulforhodamine B assay; assay type: functional; details: M14, 48 h
# [17] = tested on: KM12; assay: Cytotoxicity against human KM12 cells at 10 uM after 48 hrs by sulforhodamine B assay relative to control; assay type: functional
# [18] = tested on: OVCAR-3; assay: Cytotoxicity against human OVCAR3 cells at 10 uM after 48 hrs by sulforhodamine B assay relative to control; assay type: functional
# [19] = tested on: OVCAR-8; assay: Cytotoxicity against human OVCAR8 cells at 10 uM after 48 hrs by sulforhodamine B assay relative to control; assay type: functional
# [20] = tested on: RXF 393; assay: Cytotoxicity against human RXF393 cells at 10 uM after 48 hrs by sulforhodamine B assay relative to control; assay type: functional
# [21] = tested on: UACC-62; assay: Cytotoxicity against human UACC62 cells after 48 hrs by sulforhodamine B assay; assay type: functional; details: UACC-62, 48 h
# [22] = tested on: SNB-19; assay: Cytotoxicity against human SNB19 cells at 10 uM after 48 hrs by sulforhodamine B assay relative to control; assay type: functional
# [23] = tested on: HOP-62; assay: Cytotoxicity against human HOP62 cells after 48 hrs by sulforhodamine B assay; assay type: functional; details: HOP-62, 48 h
# [24] = tested on: HOP-62; assay: Cytotoxicity against human HOP62 cells at 10 uM after 48 hrs by sulforhodamine B assay relative to control; assay type: functional
# [25] = tested on: NCI/ADR-RES; assay: Cytotoxicity against human NCI/ADR-RES cells after 48 hrs by sulforhodamine B assay; assay type: functional
# [26] = tested on: HT-29; assay: Cytotoxicity against human HT-29 cells at 10 uM after 48 hrs by sulforhodamine B assay relative to control; assay type: functional
# [27] = tested on: U-251; assay: Cytotoxicity against human U251 cells at 10 uM after 48 hrs by sulforhodamine B assay relative to control; assay type: functional
# [28] = tested on: NCI-H322M; assay: Cytotoxicity against human NCI-H322M cells after 48 hrs by sulforhodamine B assay; assay type: functional
# [29] = tested on: HT-29; assay: Cytotoxicity against human HT-29 cells after 48 hrs by sulforhodamine B assay; assay type: functional; details: HT-29, 48 h
# [30] = tested on: NCI/ADR-RES; assay: Cytotoxicity against human NCI/ADR-RES cells at 10 uM after 48 hrs by sulforhodamine B assay relative to control; assay type: functional
# [31] = tested on: SK-MEL-28; assay: Cytotoxicity against human SK-MEL-28 cells at 10 uM after 48 hrs by sulforhodamine B assay relative to control; assay type: functional
# [32] = Cytotoxicity against human EKVX cells at 10 uM after 48 hrs by sulforhodamine B assay relative to control; assay type: functional
# [33] = tested on: CAKI-1; assay: Cytotoxicity against human CAKI-1 cells after 48 hrs by sulforhodamine B assay; assay type: functional; details: CAKI-1, 48 h
# [34] = tested on: SN12C; assay: Cytotoxicity against human SN12C cells at 10 uM after 48 hrs by sulforhodamine B assay relative to control; assay type: functional
# [35] = tested on: NCI-H460; assay: Cytotoxicity against human NCI-H460 cells after 48 hrs by sulforhodamine B assay; assay type: functional; details: NCI-H460, 48 h
# [36] = tested on: HOP-92; assay: Cytotoxicity against human HOP92 cells after 48 hrs by sulforhodamine B assay; assay type: functional; details: HOP-92, 48 h
# [37] = tested on: 786-0; assay: Cytotoxicity against human 786-0 cells after 48 hrs by sulforhodamine B assay; assay type: functional; details: 786-0, 48 h
# [38] = tested on: SF-295; assay: Cytotoxicity against human SF295 cells at 10 uM after 48 hrs by sulforhodamine B assay relative to control; assay type: functional
# [39] = tested on: SK-OV-3; assay: Cytotoxicity against human SKOV3 cells after 48 hrs by sulforhodamine B assay; assay type: functional; details: SK-OV-3, 48 h
# [40] = tested on: UO-31; assay: Cytotoxicity against human UO31 cells at 10 uM after 48 hrs by sulforhodamine B assay relative to control; assay type: functional
# [41] = tested on: TK-10; assay: Cytotoxicity against human TK10 cells at 10 uM after 48 hrs by sulforhodamine B assay relative to control; assay type: functional
# [42] = read-out: LC50 (the source's name)
compound,measurement,setting,value
CCCCNCC(=O)Nc1ccc2c(c1)C(=O)c1cc(NC(=O)CNCCCC)ccc1-2,GI50,[1],0.81 µM
same,TGI,[1],2.18 µM
same,CC50,[1]; [42],5.16 µM
same,Activity,[2],-58.56%
same,GI50,[3],2.54 µM
same,TGI,[3],8.94 µM
same,CC50,[3]; [42],30.6 µM
same,GI50,[4],1.05 µM
same,TGI,[4],2.34 µM
same,CC50,[4]; [42],5.18 µM
same,Activity,[5],-68.3%
same,GI50,[6],1.87 µM
same,TGI,[6],3.37 µM
same,CC50,[6]; [42],6.08 µM
same,Activity,[7],-91.02%
same,Activity,[8],-78.38%
same,GI50,[9],1.56 µM
same,TGI,[9],2.98 µM
same,CC50,[9]; [42],5.71 µM
same,Activity,[10],-35.23%
same,INH,[11],< 5 µM
same,GI50,[12],1.77 µM
same,TGI,[12],3.18 µM
same,CC50,[12]; [42],5.71 µM
same,Activity,[13],38.37%
same,Activity,[14],-63.34%
same,Activity,[15],-4.48%
same,GI50,[16],1.6 µM
same,TGI,[16],3.08 µM
same,CC50,[16]; [42],5.94 µM
same,Activity,[17],30.09%
same,Activity,[18],-51.72%
same,Activity,[19],9.6%
same,Activity,[20],-76.54%
same,GI50,[21],1.61 µM
same,TGI,[21],3.03 µM
same,CC50,[21]; [42],5.69 µM
same,Activity,[22],39.02%
same,GI50,[23],2.07 µM
same,TGI,[23],6.74 µM
same,CC50,[23]; [42],26 µM
same,Activity,[24],-5.44%
same,GI50,[25],2.89 µM
same,TGI,[25],10.9 µM
same,CC50,[25]; [42],41.4 µM
same,Activity,[26],-52.59%
same,Activity,[27],-57.52%
same,GI50,[28],2.12 µM
same,TGI,[28],6.93 µM
same,CC50,[28]; [42],31.5 µM
same,GI50,[29],1.1 µM
same,TGI,[29],2.53 µM
same,CC50,[29]; [42],5.86 µM
same,Activity,[30],64.82%
same,Activity,[31],-81.88%
same,Activity,[32],58.12%
same,GI50,[33],1.79 µM
same,TGI,[33],6.45 µM
same,CC50,[33]; [42],26.9 µM
same,Activity,[34],67.76%
same,GI50,[35],1.49 µM
same,TGI,[35],3.35 µM
same,CC50,[35]; [42],7.53 µM
same,GI50,[36],1.4 µM
same,TGI,[36],3.77 µM
same,CC50,[36]; [42],10.6 µM
same,GI50,[37],1.43 µM
same,TGI,[37],2.82 µM
same,CC50,[37]; [42],5.56 µM
same,Activity,[38],-26.11%
same,GI50,[39],2.55 µM
same,TGI,[39],8.26 µM
same,CC50,[39]; [42],29.5 µM
same,Activity,[40],-42.01%
same,Activity,[41],7.32%
